The record followed here is patent US20210403465A1, “QUINAZOLINYL-INDAZOLE DERIVATIVES AND THEIR USE AS INHIBITORS OF HUMAN IMMUNODEFICIENCY VIRUS REPLICATION” (ViiV HEALTHCARE UK (NO.5) LIMITED, priority 2018, published 2021).

Each structure is given as a SMILES string.

A word on the CC50: it is the concentration giving 50% cytotoxicity. As a reminder, the EC50 is the concentration needed to bring the measured effect to its halfway point.

Series [1] in a line: Compound cytotoxicity, XTT-based colorimetric assay. The class given is cell-based. As to conditions: human; uninfected MT2 cells, day 4, XTT. As to the method:
Compound cytotoxicity and the corresponding CC50 values were determined using the same protocol as described in the antiviral assay except that uninfected cells were used. Cytotoxicity was assessed on day 4 in uninfected MT2 cells by using a XTT (2,3-bis[2-Methoxy-4-nitro-5-sulfophenyl]-2H-tetrazolium-5-carboxyanilide inner salt)-based colorimetric assay (Sigma-Aldrich, St Louis, Mo.).

Series [2] has as its system recombinant NL4-3 virus (Renilla luciferase) in MT-2 cells. Nature of the series: HIV cell culture assay (antiviral activity, luciferase readout in MT-2 cells). Conditions: NL43. The class given is cell-based. As to the method:
HIV cell culture assay—MT-2 cells, 293T cells and the proviral DNA clone of NL4-3 virus were obtained from the NIH AIDS Research and Reference Reagent Program. MT-2 cells were propagated in RPMI 1640 media supplemented with 10% heat inactivated fetal bovine serum (FBS), […]. The 293T cells were propagated in DMEM media supplemented with 10% heat inactivated FBS, […]. A recombinant NL4-3 proviral clone, in which a section of the nef gene was replaced with the Renilla luciferase gene, was used to make the reference virus used in these studies. The recombinant virus was prepared through transfection of the recombinant NL4-3 proviral clone into 293T cells using Transit-293 Transfection Reagent from Mirus Bio LLC (Madison, Wis.). Supernatant was harvested after 2-3 days and the amount of virus present was titered in MT-2 cells using luciferase enzyme activity as a marker by measuring luciferase enzyme activity. Luciferase was quantitated using the EnduRen Live Cell Substrate from Promega (Madison, Wis.). Antiviral activities of compounds toward the recombinant virus were quantified by measuring luciferase activity in MT-2 cells infected for 4-5 days with the recombinant virus in the presence of serial dilutions of the compound.
The 50% effective concentration (EC50) was calculated by using the exponential form of the median effect equation where (Fa)=1/[1+(ED50/drug conc.)m] (Johnson V A, Byington R T. Infectivity Assay. In Techniques in HIV Research. ed. Aldovini A, Walker B D. 71-76. New York: Stockton Press. 1990). The 50% inhibitory concentration (EC50) was calculated by using the exponential form of the median effect equation where percent inhibition=1/[1+(EC50/drug concentration)m], where m is a parameter that reflects the slope of the concentration-response curve.

As for `Cn1nc(NS(C)(=O)=O)c2c(Cl)ccc(-n3c([C@H](Cc4cc(F)cc(F)c4)NC(=O)Cn4nc(C(F)F)c5c4C(F)(F)[C@@H]4C[C@H]54)nc4cc(OCC5CCCC5)ccc4c3=O)c21` (atropisomer, axis not shown; (P)) [Example 2, N—((S)-1-((3P)-3-(4-chloro-1-methyl-3-(methylsulfonamido)-1H-indazol-7-yl)-7-(cyclopentylmethoxy)-4-oxo-3,4-dihydroquinazolin-2-yl)-2-(3,5-difluorophenyl)ethyl)-2-((3bS,4aR)-3-(difluoromethyl)-5,5-difluoro-3b,4,4a,5-tetrahydro-1H-cyclopropa[3,4]cyclopenta[1,2-c]pyrazol-1-yl)acetamide], the CC50 at 4 days in series [1] is above 1000 nM. For the same compound, the EC50 in series [2] was determined as 0.18 nM.
`Cn1nc(NS(C)(=O)=O)c2c(Cl)ccc(-n3c([C@H](Cc4cc(F)cc(F)c4)NC(=O)Cn4nc(C(F)F)c5c4C(F)(F)[C@@H]4C[C@H]54)nc4cc(OCC5CCCCC5)ccc4c3=O)c21` (atropisomer, axis not shown; (P)) [Example 3, N—((S)-1-((3P)-3-(4-chloro-1-methyl-3-(methylsulfonamido)-1H-indazol-7-yl)-7-(cyclohexylmethoxy)-4-oxo-3,4-dihydroquinazolin-2-yl)-2-(3,5-difluorophenyl)ethyl)-2-((3bS,4aR)-3-(difluoromethyl)-5,5-difluoro-3b,4,4a,5-tetrahydro-1H-cyclopropa[3,4]cyclopenta[1,2-c]pyrazol-1-yl)acetamide] displayed a CC50 at 4 days in series [1] above 1000 nM. Further, the EC50 in series [2] was found to be 0.47 nM.
The like results for `Cn1nc(NS(C)(=O)=O)c2c(Cl)ccc(-n3c([C@H](Cc4cc(F)cc(F)c4)NC(=O)Cn4nc(C(F)F)c5c4C(F)(F)[C@@H]4C[C@H]54)nc4cc(OCCN5CCS(=O)(=O)CC5)ccc4c3=O)c21` (atropisomer, axis not shown; (P)) [Example 4, N—((S)-1-((3P)-3-(4-chloro-1-methyl-3-(methylsulfonamido)-1H-indazol-7-yl)-7-(2-(1,1-dioxidothiomorpholino)ethoxy)-4-oxo-3,4-dihydroquinazolin-2-yl)-2-(3,5-difluorophenyl)ethyl)-2-((3bS,4aR)-3-(difluoromethyl)-5,5-difluoro-3b,4,4a,5-tetrahydro-1H-cyclopropa[3,4]cyclopenta[1,2-c]pyrazol-1-yl)acetamide] were, in that order, above 1000 nM and 0.08 nM.
The like results for `Cn1nc(NS(C)(=O)=O)c2c(Cl)ccc(-n3c([C@H](Cc4cc(F)cc(F)c4)NC(=O)Cn4nc(C(F)F)c5c4C(F)(F)[C@@H]4C[C@H]54)nc4cc(OCCOc5ccccc5)ccc4c3=O)c21` (atropisomer, axis not shown; (P)) [Example 5, N—((S)-1-((3P)-3-(4-chloro-1-methyl-3-(methylsulfonamido)-1H-indazol-7-yl)-4-oxo-7-(2-phenoxyethoxy)-3,4-dihydroquinazolin-2-yl)-2-(3,5-difluorophenyl)ethyl)-2-((3bS,4aR)-3-(difluoromethyl)-5,5-difluoro-3b,4,4a,5-tetrahydro-1H-cyclopropa[3,4]cyclopenta[1,2-c]pyrazol-1-yl)acetamide] were, in that order, above 1000 nM and 0.36 nM.
The like results for `Cn1nc(NS(C)(=O)=O)c2c(Cl)ccc(-n3c([C@H](Cc4cc(F)cc(F)c4)NC(=O)Cn4nc(C(F)F)c5c4C(F)(F)[C@@H]4C[C@H]54)nc4cc(OCCC(C)(C)C)ccc4c3=O)c21` (atropisomer, axis not shown; (P)) [Example 6, N—((S)-1-((3P)-3-(4-chloro-1-methyl-3-(methylsulfonamido)-1H-indazol-7-yl)-7-(3,3-dimethylbutoxy)-4-oxo-3,4-dihydroquinazolin-2-yl)-2-(3,5-difluorophenyl)ethyl)-2-((3bS,4aR)-3-(difluoromethyl)-5,5-difluoro-3b,4,4a,5-tetrahydro-1H-cyclopropa[3,4]cyclopenta[1,2-c]pyrazol-1-yl)acetamide] were, in that order, above 1000 nM and 0.18 nM.
Regarding `Cn1nccc1CCOc1ccc2c(=O)n(-c3ccc(Cl)c4c(NS(C)(=O)=O)nn(C)c34)c([C@H](Cc3cc(F)cc(F)c3)NC(=O)Cn3nc(C(F)F)c4c3C(F)(F)[C@@H]3C[C@H]43)nc2c1` (atropisomer, axis not shown; (P)) [Example 7, N—((S)-1-((3P)-3-(4-chloro-1-methyl-3-(methylsulfonamido)-1H-indazol-7-yl)-7-(2-(1-methyl-1H-pyrazol-5-yl)ethoxy)-4-oxo-3,4-dihydroquinazolin-2-yl)-2-(3,5-difluorophenyl)ethyl)-2-((3bS,4aR)-3-(difluoromethyl)-5,5-difluoro-3b,4,4a,5-tetrahydro-1H-cyclopropa[3,4]cyclopenta[1,2-c]pyrazol-1-yl)acetamide], the CC50 at 4 days in series [1] was above 1000 nM. The EC50 in series [2] came out at 0.074 nM.
The like results for `Cn1nc(NS(C)(=O)=O)c2c(Cl)ccc(-n3c([C@H](Cc4cc(F)cc(F)c4)NC(=O)Cn4nc(C(F)F)c5c4C(F)(F)[C@@H]4C[C@H]54)nc4cc(OC5CCCC5)ccc4c3=O)c21` (atropisomer, axis not shown; (P)) [Example 9, N—((S)-1-((3P)-3-(4-chloro-1-methyl-3-(methylsulfonamido)-1H-indazol-7-yl)-7-(cyclopentyloxy)-4-oxo-3,4-dihydroquinazolin-2-yl)-2-(3,5-difluorophenyl)ethyl)-2-((3bS,4aR)-3-(difluoromethyl)-5,5-difluoro-3b,4,4a,5-tetrahydro-1H-cyclopropa[3,4]cyclopenta[1,2-c]pyrazol-1-yl)acetamide] were, in that order, above 1000 nM and 0.22 nM.
The like results for `Cn1nc(NS(C)(=O)=O)c2c(Cl)ccc(-n3c([C@H](Cc4cc(F)cc(F)c4)NC(=O)Cn4nc(C(F)F)c5c4C(F)(F)[C@@H]4C[C@H]54)nc4cc(OC5CCOCC5)ccc4c3=O)c21` (atropisomer, axis not shown; (P)) [Example 10, N—((S)-1-((3P)-3-(4-chloro-1-methyl-3-(methylsulfonamido)-1H-indazol-7-yl)-4-oxo-7-((tetrahydro-2H-pyran-4-yl)oxy)-3,4-dihydroquinazolin-2-yl)-2-(3,5-difluorophenyl)ethyl)-2-((3bS,4aR)-3-(difluoromethyl)-5,5-difluoro-3b,4,4a,5-tetrahydro-1H-cyclopropa[3,4]cyclopenta[1,2-c]pyrazol-1-yl)acetamide] were, in that order, above 1000 nM and 0.036 nM.
Take `Cn1nc(NS(C)(=O)=O)c2c(Cl)ccc(-n3c([C@H](Cc4cc(F)cc(F)c4)NC(=O)Cn4nc(C(F)F)c5c4C(F)(F)[C@@H]4C[C@H]54)nc4cc(OCc5cncnc5)ccc4c3=O)c21` (atropisomer, axis not shown; (P)) [Example 11, N—((S)-1-((3P)-3-(4-chloro-1-methyl-3-(methylsulfonamido)-1H-indazol-7-yl)-4-oxo-7-(pyrimidin-5-ylmethoxy)-3,4-dihydroquinazolin-2-yl)-2-(3,5-difluorophenyl)ethyl)-2-((3bS,4aR)-3-(difluoromethyl)-5,5-difluoro-3b,4,4a,5-tetrahydro-1H-cyclopropa[3,4]cyclopenta[1,2-c]pyrazol-1-yl)acetamide]: the CC50 at 4 days in series [1] is above 1000 nM. In addition, the EC50 in series [2] is 0.066 nM.
The like results for `Cn1nc(NS(C)(=O)=O)c2c(Cl)ccc(-n3c([C@H](Cc4cc(F)cc(F)c4)NC(=O)Cn4nc(C(F)F)c5c4C(F)(F)[C@@H]4C[C@H]54)nc4cc(OCC5CCC5)ccc4c3=O)c21` (atropisomer, axis not shown; (P)) [Example 12, N—((S)-1-((3P)-3-(4-chloro-1-methyl-3-(methylsulfonamido)-1H-indazol-7-yl)-7-(cyclobutylmethoxy)-4-oxo-3,4-dihydroquinazolin-2-yl)-2-(3,5-difluorophenyl)ethyl)-2-((3bS,4aR)-3-(difluoromethyl)-5,5-difluoro-3b,4,4a,5-tetrahydro-1H-cyclopropa[3,4]cyclopenta[1,2-c]pyrazol-1-yl)acetamide] were, in that order, above 1000 nM and 0.15 nM.
The corresponding values for `Cn1nc(NS(C)(=O)=O)c2c(Cl)ccc(-n3c([C@H](Cc4cc(F)cc(F)c4)NC(=O)Cn4nc(C(F)F)c5c4C(F)(F)[C@@H]4C[C@H]54)nc4cc(OCCn5cccn5)ccc4c3=O)c21` (atropisomer, axis not shown; (P)) [Example 13, N—((S)-1-(7-(2-(1H-pyrazol-1-yl)ethoxy)-(3P)-3-(4-chloro-1-methyl-3-(methylsulfonamido)-1H-indazol-7-yl)-4-oxo-3,4-dihydroquinazolin-2-yl)-2-(3,5-difluorophenyl)ethyl)-2-((3bS,4aR)-3-(difluoromethyl)-5,5-difluoro-3b,4,4a,5-tetrahydro-1H-cyclopropa[3,4]cyclopenta[1,2-c]pyrazol-1-yl)acetamide] are above 1000 nM and 0.032 nM.
